Measurements from patent US12673918B2, “Small molecule RPN13 inhibitors with antitumor properties” (The Johns Hopkins University, priority 2019, dated 2026).

Assays:
[1] = system: ES2 cells; assay: Annexin V apoptosis flow cytometry, ES2 cells; format: cell-based, human; conditions: ES2, 12 hr
Protocol: FIG. 7D illustrates surface PS staining of 10^5 ES2 cells treated with compounds for 12 hr and re-suspended in binding buffer and labeled with Annexin V-PE and 7-AAD at RT for 15 min and analyzed by flow cytometry (Becton Dickinson, Mountain View, CA).
FIG. 16D illustrates ES2 cells were treated with compounds at indicated doses for 12 hr then re-suspended in 100 μL binding buffer with 5 μL of Annexin V-PE and 5 μL of 7-AAD to examine early apoptosis. After a 15 min incubation at RT, the cells were analyzed by flow cytometry using a FACSCalibur and CellQuest software.

[2] = system: VU93
[3] = system: ES2 cells; assay: Seahorse mitochondrial stress test, ES2 cells; format: cell-based, human
Protocol: During the mitochondrial stress test, baseline OCR measurements were followed by the addition of the compound oligomycin to measure ATP-linked respiration. Upon addition of the uncoupler FCCP, maximal respiration is measured. […] At the end of the assay, a mix of rotenone and antimycin A was injected to provide a measure of non-mitochondrial respiration. […] To determine the impact of RA413S on glycolysis, ES2 cells were incubated in medium without glucose or pyruvate and the baseline ECAR was measured. Addition of glucose allows the measurement of the glycolysis rate. This was followed by the injection of oligomycin which inhibits mitochondrial ATP production and shifts the energy production to glycolysis. The consequent rise in ECAR measures the cellular maximum glycolytic capacity.
Seahorse Assay: For quantification of oxygen consumption rate, ES2 cells were seeded at 20,000 cells per well in Seahorse XF96 Analyzer plates in regular media and incubated at 37° C. with 5% CO2 overnight. […] The plate was then loaded into the Seahorse machine and readings of oxygen and pH levels were taken before and after injections of 3 μM oligomycin, 4 μM FCCP, 2 μM antimycin, and 2 μM rotenone. Oxygen consumption rate and extracellular acidification rate were analyzed using Wave 2.4 software.

[4] = system: NF-κB; assay: NF-κB dependent luciferase reporter in 293T cells; format: cell-based; conditions: 293T NF-κB luciferase, drug treatment 7 hr
Text: FIG. 21C illustrates 293T cells stably expressing NF-κB dependent luciferase gene that show a dose dependent reduction in bioluminescence with drug treatment (7 hr) measured by luminometer.
Activation of NF-κB is regulated by IκB proteins. IκB-α ubiquitination and degradation is an important step for the nuclear localization of NF-kB and activation of its transcriptional program.

[5] = system: ES2-luc xenograft; assay: ES2-luc intraperitoneal xenograft in nude mice; format: in vivo; conditions: 10 mg/Kg every 3 days, total 12 doses
Protocol: ES2 is a human cell line derived from a high grade ovarian clear cell carcinoma (42). The efficacy of RA375 against the ES2 xenograft model expressing luciferase (ES2-luc) was tested. Nude female mice were inoculated with ES2-luc cells into the peritoneal cavity. After 3 days the mice were imaged for their basal luminescence activity and randomized into two groups (n=8). […] Mice were imaged after the first and second week of treatment for their luciferase activity to assess tumor burden.
Briefly, female nude mice were injected interperitoneally (i.p.) with ES2-luc cells (1×10^6) in 100 μL PBS and the basal luminescence was measured after three days using IVIS 200 imaging after injecting luciferin. […] Over the treatment period mice were imaged every week for bioluminescence to monitor tumor growth.
(§1) Tumor Studies: Female C57BL6 or Nude mice were inoculated with 10^6 ES2-Luciferase cells i.p. in 100 uL PBC, or ID8-VegfDefb29 syngeneic mouse model of ovarian cancer expressing luciferase (62) i.p. in 100 μL PBS. At day 3, mice were imaged for basal level luminescence activity with a Xenogen IVIS 200 after injection i.p. with luciferin (0.3 mg in 100 water). Mice were randomized into two groups (n=8) and treated i.p. with compounds or vehicle (25% (w/v) β-Hydroxypropylcyclodextrin in water), and imaged again on days 7 and 14. RA375 was administered i.p. at 10 mg/Kg.

[6] = system: SKOV3
Protocol: (§2) Cell lines and cytotoxicity assays: All cell lines were obtained from the American Type Culture Collection (ATCC) and cultured in the specified medium supplemented with 10% fetal bovine serum, 100 IU/mL penicillin, and 100 μg/mL streptomycin at 37° C. in a humidified 5% CO2/95% air incubator. […] To assess drug cytotoxicity, cells were seeded at 2,500 cells/well (10,000 cells/well for MM lines) in 100 μL medium in 96-well plate and after 24 treated with compounds for 72 h, incubated according to the manufacturer's protocol with the Thiazolyl Blue Tetrazolium Bromide (Sigma, M2128) and A570 measured using a Benchmark Plus microplate spectrophotometer (BIO-RAD). IC50 data was analyzed by Graphpad Prism software.

[7] = system: SKOV3 cells; assay: XTT cytotoxicity assay, SKOV3; format: cell-based, human; conditions: Homo sapiens, SK-OV-3; Table 1; XTT assay; read-out: IC50 SKOV3
Text: The impact of substituents of the aromatic ring on the potency of molecules was also examined. The presence of either an electron withdrawing group (EWG) or an electron donating group (EDG) influences the reactivity of a Michael acceptor towards the target protein but can also impact specificity/selectivity.

[8] = system: C2KmFvB1; assay: MTT cytotoxicity assay, C2KmFvB1; conditions: read-out: cytotoxicity IC50 C2KmFvB1, Tables 3A/4B/4C, BRCA2 + Ve
[9] = system: SSC25; assay: MTT cytotoxicity assay, SSC25; format: cell-based; conditions: Table 3, 48 hr, Head & Neck (HPV −ve)
Protocol: as §2

[10] = system: JHU11; assay: MTT cytotoxicity assay, JHU11; format: cell-based; conditions: Table 3, 48 hr, Head & Neck (HPV −ve)
Protocol: The cytotoxic efficacy of selected compounds was assessed against multiple myeloma (MM) cell lines, as this is a validated clinical target for the licensed proteasome inhibitors.
Cell lines and cytotoxicity assays: All cell lines were obtained from the American Type Culture Collection (ATCC) and cultured in the specified medium supplemented with 10% fetal bovine serum, 100 IU/mL penicillin, and 100 μg/mL streptomycin at 37° C. in a humidified 5% CO2/95% air incubator. […] To assess drug cytotoxicity, cells were seeded at 2,500 cells/well (10,000 cells/well for MM lines) in 100 μL medium in 96-well plate and after 24 treated with compounds for 72 h, incubated according to the manufacturer's protocol with the Thiazolyl Blue Tetrazolium Bromide (Sigma, M2128) and A570 measured using a Benchmark Plus microplate spectrophotometer (BIO-RAD). IC50 data was analyzed by Graphpad Prism software. In the chirality studies the cells were treated with compounds for 48 h, and the cells were incubated and measured via the preceeding protocols.

[11] = system: ID8-vegf; conditions: mouse
[12] = system: proteasome (4UbFL reporter); assay: 4UbFL reporter in leg muscle of BALB/c mice; format: in vivo; conditions: single i.p. administration to mice
Protocol: FIG. 9B illustrates BALB/c mice electroporated with 4UbFL plasmid (10 μg/mouse) in the leg muscle and the basal luminescence was recorded after 48 hr. Groups of mice (n=5) were treated with different compound (40 mg/Kg) or vehicle alone (25% (w/v) β-Hydroxypropylcyclodextrin in water). Mice were imaged for bioluminiscence activity using IVIS instrument at 4, 24, 48, 72 and 96 hr.
To test for proteasome inhibition by RA375 in vivo, an electroporation delivery was employed to transfect the leg muscle of mice with the 4UbFL reporter plasmid. […] At two days post electroporation of the 4UbFL DNA, mice were imaged, and base line luminescence recorded. […] After 4 h, 24 h, 48 h, 72 h and 96 h post treatment mice were again imaged, and bioluminescence was quantified.
Electroporation Method: A patch of CD1 or Balb/c mouse leg was shaved of hair and 10 μg 4Ub-FL plasmid in 20 μL of PBS was injected into the quadriceps femoralis muscle followed immediately by injection of the 2 Needle Array to 5 mm depth encompassing the injection site and square wave electroporation (ElectroSquarePorator 833, BTX-2 Needle array 5 mm gap, Harvard apparatus) delivered as eight pulses at 106V for 20 ms with 200 ms intervals. […] Equally sized areas were analyzed using Living Image 2.20 software. […]

[13] = in vivo; format: in vivo, C57BL/6 mice; conditions: female, C57BL/6, mouse, in vivo; suggested from toxicities at higher dose; read-out: MTD in tumor-bearing animals
Protocol: To assess therapeutic efficacy the ID8-VegfDefb29 cell line was utilized in a syngeneic mouse model of ovarian cancer expressing luciferase (62). ID8 was first derived from spontaneous malignant transformation of C57BL/6 mouse ovarian surface epithelial cells in vitro (69). ID8-Vegf Defb29 cells represent a more aggressive variant of ovarian cancer in which VEGF provides vascular growth which is augmented by the presence of DEFB29 (62). C57BL/6 mice were injected i.p. with ID8-VegfDefb29 cells stably expressing firefly luciferase (0.5×10^6 cells) in PBS (100 μL). After 72 hrs, mice were imaged for their basal luminescence levels using an IVIS200 imager. Mice with visible luminescence were randomized into equal groups including vehicle (n=8), RA414 (3 mg/Kg, n=8), RA414 (10 mg/Kg, n=8) and treated every three days for up to 3 weeks. Mice were imaged every week to measure bioluminescence expressed by tumor after administration of luciferin. […] On day 24 two mice were sacrificed after collection of ascites, and the remainder required euthanasia on day 31 (FIGS. 17A and 17B). Administration of RA414 at 10 mg/kg (3 doses delivered every three days) regressed the tumor completely in 50% of the mice with less than 10% weight loss. […] This is consistent with proteasome inhibition within the ascites cells by the […] RA414 treatment regimen.
as §1

## C[C@H]1/C(=C\c2ccc([N+](=O)[O-])cc2)C(=O)/C(=C/c2ccc([N+](=O)[O-])cc2)CN1C(=O)[C@@H](N)Cc1ccccc1
[1]
  surface display of Annexin V versus RA183: more potently activated a biomarker of early apoptosis
[2]
  IC50: 100 nM
[3]; ES2, 12 hr, 100 nM
  decrease of ATP production: ~4 fold
[3]; ES2, relative to vehicle or RA414-treated groups
  maximal respiration: significantly reduced
[4]
  decrease in NF-κB activity, relative potency: more potent than for RA183
[5]
  survival: significantly increased survival
  tumor burden (bioluminescence): significantly reduced tumor burden
[6]
  fold more cytotoxic than RA413R: 4 fold

## N[C@@H](Cc1ccccc1)C(=O)N1C/C(=C\c2ccc(Cl)c(Cl)c2)C(=O)/C(=C/c2ccc(Cl)c(Cl)c2)C1 [RA190, reference compound]
[7]
  IC50: 75 nM
[8]
  IC50: 436 nM

## O=C(CCl)N[C@@H](Cc1ccccc1)C(=O)N1C/C(=C\c2ccc([N+](=O)[O-])cc2)C(=O)/C(=C/c2ccc([N+](=O)[O-])cc2)C1 [RA375]
[9]
  IC50: 189 nM
[10]
  IC50: 178 nM
[11]
  IC50: 44 nM
[12]
  duration of proteasome inhibition in muscle: > 72 h

## CC1/C(=C\c2ccc([N+](=O)[O-])cc2)C(=O)/C(=C/c2ccc([N+](=O)[O-])cc2)CN1C(=O)[C@H](Cc1ccccc1)NC(=O)CCl (stereo partly drawn) [RA414]
[13]
  MTD: 3 mg/kg
